Assay results from the SangsterLogP compilation.

assay: method code SF, from DOI: 10.1016/0223-5234(96)88244-4; settings: pH 7.4

logD	SMILES
1.07	N#CN=C(NS(=O)(=O)c1cnccc1NC1CCCCC1)N1CCCC1

assay: not given; settings: not given

SMILES	logP
CC(C)NC(=NC#N)NS(=O)(=O)c1cnccc1NC1CC1	-0.77
CC(C)CNc1ccncc1S(=O)(=O)NC(=NC#N)NC(C)C	0.1
CC(C)NC(=NC#N)NS(=O)(=O)c1cnccc1NC1CCCCC1	0.75
CCNC(=NC#N)NS(=O)(=O)c1cnccc1NC1CCCCC1	0.16
CC(C)NC(=NC#N)NS(=O)(=O)c1cnccc1NC1CCCC1	0.2
CCCNc1ccncc1S(=O)(=O)NC(=NC#N)NC(C)C	-0.43
N#CN=C(NS(=O)(=O)c1cnccc1NC1CCCCCC1)N1CCCC1	1.65
N#CN=C(NS(=O)(=O)c1cnccc1NC1CCCCCCC1)N1CCCC1	2.15
CC(C)N=C(NC#N)NS(=O)(=O)c1cnccc1Nc1cccc(F)c1	0.59
CCNc1ccncc1S(=O)(=O)NC(=NC#N)NC(C)C	-1.02
CC(C)NC(=NC#N)NS(=O)(=O)c1cnccc1NC1CCCCCCCCCCC1	3.73
CC(C)NC(=NC#N)NS(=O)(=O)c1cnccc1NC1CCCCCCC1	1.8
CCNC(=NC#N)NS(=O)(=O)c1cnccc1NC1CCCCCC1	0.75

Continued, values first:

logP	SMILES
0.91	Cc1ccc(Nc2ccncc2S(=O)(=O)NC(=NC#N)NC(C)C)cc1
0.86	Cc1cccc(Nc2ccncc2S(=O)(=O)NC(=NC#N)NC(C)C)c1
1.27	CC(C)NC(=NC#N)NS(=O)(=O)c1cnccc1Nc1cccc(Br)c1
0.67	Cc1ccccc1Nc1ccncc1S(=O)(=O)NC(=NC#N)NC(C)C
-1.43	CNc1ccncc1S(=O)(=O)NC(=NC#N)NC(C)C
1.51	CC(C)NC(=NC#N)NS(=O)(=O)c1cnccc1Nc1cccc(I)c1
1.14	CC(C)NC(=NC#N)NS(=O)(=O)c1cnccc1Nc1cccc(Cl)c1
1.37	CC(C)NC(=NC#N)NS(=O)(=O)c1cnccc1Nc1ccc(Cl)cc1
